Measurements reported in ChEMBL document CHEMBL6078619, “Targeting focal adhesion kinase (FAK) in cancer therapy: A recent update on inhibitors and PROTAC degraders” (Eur J Med Chem, 2024).
Blank lines part the entries; values can stand above or below the compound they belong to.

How the values were obtained:
Focal adhesion kinase 1 [1] = molecular target: T1, Focal adhesion kinase 1 (Homo sapiens, UniProt Q05397); experiment: Inhibition of FAK (unknown origin)
Target sequence in this assay (Q05397 whole entry): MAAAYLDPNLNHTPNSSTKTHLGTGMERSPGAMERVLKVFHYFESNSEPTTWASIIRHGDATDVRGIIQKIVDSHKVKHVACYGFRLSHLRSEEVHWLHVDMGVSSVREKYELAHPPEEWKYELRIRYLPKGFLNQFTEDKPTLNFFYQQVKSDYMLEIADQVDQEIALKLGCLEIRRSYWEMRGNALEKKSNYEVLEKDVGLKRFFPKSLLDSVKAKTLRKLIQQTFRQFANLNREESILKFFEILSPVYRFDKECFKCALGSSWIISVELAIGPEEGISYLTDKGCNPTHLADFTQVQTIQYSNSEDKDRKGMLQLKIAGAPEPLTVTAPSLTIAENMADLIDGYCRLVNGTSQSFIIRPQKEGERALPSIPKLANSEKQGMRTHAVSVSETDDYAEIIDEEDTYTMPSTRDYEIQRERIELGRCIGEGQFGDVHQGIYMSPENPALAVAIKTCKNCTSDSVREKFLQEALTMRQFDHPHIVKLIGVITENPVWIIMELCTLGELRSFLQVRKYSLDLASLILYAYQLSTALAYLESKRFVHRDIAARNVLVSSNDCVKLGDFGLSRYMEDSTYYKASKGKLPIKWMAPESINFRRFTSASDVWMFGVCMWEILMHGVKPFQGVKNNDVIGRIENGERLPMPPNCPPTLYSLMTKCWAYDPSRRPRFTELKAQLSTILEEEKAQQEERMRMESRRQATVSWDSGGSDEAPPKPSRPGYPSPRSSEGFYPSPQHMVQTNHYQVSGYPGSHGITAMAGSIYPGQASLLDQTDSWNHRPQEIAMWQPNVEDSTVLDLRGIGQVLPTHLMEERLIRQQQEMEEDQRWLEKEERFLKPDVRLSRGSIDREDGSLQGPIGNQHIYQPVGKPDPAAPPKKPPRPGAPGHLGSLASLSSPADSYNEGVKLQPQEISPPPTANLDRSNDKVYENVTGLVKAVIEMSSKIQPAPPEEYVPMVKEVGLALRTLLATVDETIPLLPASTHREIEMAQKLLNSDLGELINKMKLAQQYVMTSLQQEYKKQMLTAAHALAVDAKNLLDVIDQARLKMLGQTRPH

HeLa = experiment: Antiproliferative activity against human HeLa cells assessed as reduction in cell viability by MTT assay; assay type: functional, cell-based
HCT-116 [2] = experiment: Antiproliferative activity against human HCT-116 cells assessed as reduction in cell viability by MTT assay; assay type: functional, cell-based
MDA-MB-231 [3] = experiment: Antiproliferative activity against human MDA-MB-231 cells assessed as reduction in cell viability by MTT assay; assay type: functional, cell-based
Insulin receptor = Insulin receptor (Homo sapiens, UniProt P06213); experiment: Inhibition of INSR (unknown origin)
Chain of Insulin receptor (P06213 28-758 limits assumed): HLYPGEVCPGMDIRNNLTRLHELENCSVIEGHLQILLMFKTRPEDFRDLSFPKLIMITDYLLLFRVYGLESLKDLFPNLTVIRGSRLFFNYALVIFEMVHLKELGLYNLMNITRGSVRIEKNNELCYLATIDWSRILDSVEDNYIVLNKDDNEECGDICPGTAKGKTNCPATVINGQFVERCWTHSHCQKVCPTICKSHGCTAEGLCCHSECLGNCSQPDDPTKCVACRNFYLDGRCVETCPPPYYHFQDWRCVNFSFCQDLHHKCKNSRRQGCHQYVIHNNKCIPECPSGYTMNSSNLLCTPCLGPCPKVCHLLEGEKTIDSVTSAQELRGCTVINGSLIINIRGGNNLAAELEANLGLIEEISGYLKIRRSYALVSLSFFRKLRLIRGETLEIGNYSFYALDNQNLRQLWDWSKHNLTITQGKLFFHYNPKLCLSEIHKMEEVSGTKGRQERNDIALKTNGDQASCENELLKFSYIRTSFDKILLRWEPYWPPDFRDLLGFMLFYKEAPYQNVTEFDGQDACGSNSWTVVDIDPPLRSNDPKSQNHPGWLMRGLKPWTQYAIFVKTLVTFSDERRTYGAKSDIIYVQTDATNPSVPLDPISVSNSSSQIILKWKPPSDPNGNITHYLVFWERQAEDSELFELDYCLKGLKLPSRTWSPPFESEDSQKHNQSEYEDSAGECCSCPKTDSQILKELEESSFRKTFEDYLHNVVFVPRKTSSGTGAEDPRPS
Chain of Insulin receptor (P06213 763-1382 limits assumed): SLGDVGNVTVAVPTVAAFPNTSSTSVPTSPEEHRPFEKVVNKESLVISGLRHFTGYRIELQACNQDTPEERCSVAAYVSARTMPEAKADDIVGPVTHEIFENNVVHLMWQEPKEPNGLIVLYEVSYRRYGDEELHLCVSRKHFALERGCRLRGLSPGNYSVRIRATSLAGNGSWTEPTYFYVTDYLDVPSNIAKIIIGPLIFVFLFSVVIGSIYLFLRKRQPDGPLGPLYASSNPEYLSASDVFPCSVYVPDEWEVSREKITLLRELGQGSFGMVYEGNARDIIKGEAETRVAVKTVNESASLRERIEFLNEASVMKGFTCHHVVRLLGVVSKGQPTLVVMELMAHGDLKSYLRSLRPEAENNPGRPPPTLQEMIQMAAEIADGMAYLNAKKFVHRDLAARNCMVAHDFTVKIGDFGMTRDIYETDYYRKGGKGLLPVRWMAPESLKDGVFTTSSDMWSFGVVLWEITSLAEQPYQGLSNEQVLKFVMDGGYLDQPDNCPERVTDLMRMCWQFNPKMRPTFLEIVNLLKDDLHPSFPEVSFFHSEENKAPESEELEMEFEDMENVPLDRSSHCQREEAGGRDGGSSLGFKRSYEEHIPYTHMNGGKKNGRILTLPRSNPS

MGC-803 [4] = experiment: Antitumor activity against human MGC-803 cells xenografted in nude mouse assessed as tumor inhibition at 20 mg/kg, ip administered once every two days for 21 days relative to control; assay type: functional; set-up: scale not given: the % may be the effect or the level left; conditions: time 21 day
[5] = Half life in human at 1 mg/kg, iv by LC-MS/MS analysis; assay type: ADME, organism-based; conditions: in vivo
[6] = Half life in human at 10 mg/kg, po by LC-MS/MS analysis; assay type: ADME, organism-based; conditions: in vivo
[7] = Oral bioavailability in human at 10 mg/kg; assay type: ADME, organism-based; conditions: in vivo
A549 [8] = experiment: Antiproliferative activity against human A549 cells assessed as reduction in cell viability incubated for 48 hrs by MTT assay; assay type: functional, cell-based; conditions: A549, 48 h
U-87 MG = experiment: Antiproliferative activity against human U-87 MG cells assessed as reduction in cell viability incubated for 48 hrs by MTT assay; assay type: functional, cell-based, U-87MG ATCC
MDA-MB-231 [9] = experiment: Antiproliferative activity against human MDA-MB-231 cells assessed as reduction in cell viability incubated for 48 hrs by MTT assay; assay type: functional, cell-based; conditions: MDA-MB-231, 48 h
PANC-1 = experiment: Antiproliferative activity against human PANC-1 cells assessed as reduction in cell viability incubated for 48 hrs by MTT assay; assay type: functional, cell-based; conditions: PANC-1, 48 h
BXPC-3 = experiment: Antiproliferative activity against human BXPC-3 cells assessed as reduction in cell viability incubated for 48 hrs by MTT assay; assay type: functional, cell-based; conditions: BXPC-3, 48 h
HepG2 [10] = experiment: Antiproliferative activity against human HepG2 cells assessed as reduction in cell viability incubated for 48 hrs by MTT assay; assay type: functional, cell-based; conditions: HepG2, 48 h
MCF7 [11] = experiment: Antiproliferative activity against human MCF7 cells assessed as reduction in cell viability incubated for 48 hrs by MTT assay; assay type: functional, cell-based; conditions: MCF7, 48 h
HCT-15 = experiment: Antiproliferative activity against human HCT-15 cells assessed as reduction in cell viability incubated for 48 hrs by MTT assay; assay type: functional, cell-based; conditions: HCT-15, 48 h
[12] = Antiproliferative activity against human BEAS-2B cells assessed as reduction in cell viability incubated for 48 hrs by MTT assay; assay type: toxicity, cell-based
[13] = Antiproliferative activity against HUVEC cells assessed as cell growth inhibition measured after 72 hrs by crystal violet staining based analysis; assay type: toxicity; conditions: human
A-375 = experiment: Antiproliferative activity against human A-375 cells assessed as reduction in cell viability incubated for 72 hrs by MTT assay; assay type: functional, cell-based; conditions: A-375, 72 h
MCF7 [14] = experiment: Antiproliferative activity against human MCF7 cells assessed as reduction in cell viability incubated for 72 hrs by MTT assay; assay type: functional, cell-based; conditions: MCF7, 72 h
HepG2 [15] = experiment: Antiproliferative activity against human HepG2 cells assessed as reduction in cell viability incubated for 72 hrs by MTT assay; assay type: functional, cell-based; conditions: HepG2, 72 h
SGC-7901 = experiment: Antiproliferative activity against human SGC-7901 cells assessed as reduction in cell viability incubated for 72 hrs by MTT assay; assay type: functional, cell-based; conditions: SGC-7901, 72 h
DLD-1 = experiment: Cytotoxicity against human DLD1 cells assessed as growth inhibition; assay type: functional, cell-based
HCT-116 [16] = experiment: Cytotoxicity against human HCT-116 cells; assay type: functional, cell-based
[17] = molecular target: T2, von Hippel-Lindau disease tumor suppressor/Bromodomain-containing protein 4 (Homo sapiens, UniProt O60885+P40337); experiment: PROTAC activity at BRD4/VHL E3 ligase in human HEK293 cells assessed as degradation of BRD4 incubated for 18 hrs by Nano-Glo HiBiT assay; assay type: cell-based
T2 sequence (P40337 whole entry, looked up, other chains not shown): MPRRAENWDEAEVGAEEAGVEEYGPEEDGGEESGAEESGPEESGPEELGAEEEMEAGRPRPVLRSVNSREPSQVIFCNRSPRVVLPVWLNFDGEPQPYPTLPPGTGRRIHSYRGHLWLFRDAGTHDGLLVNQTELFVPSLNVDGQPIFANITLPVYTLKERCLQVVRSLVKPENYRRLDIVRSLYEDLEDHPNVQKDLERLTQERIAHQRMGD

[18] = Half life in human at 20 mg/kg, po; assay type: ADME, organism-based; conditions: in vivo
Focal adhesion kinase 1 [19] = molecular target: T1, Focal adhesion kinase 1; experiment: Inhibition of FAK (unknown origin) at 0.1 uM relative to control
Target sequence in this assay (Q05397 2-1052 limits assumed): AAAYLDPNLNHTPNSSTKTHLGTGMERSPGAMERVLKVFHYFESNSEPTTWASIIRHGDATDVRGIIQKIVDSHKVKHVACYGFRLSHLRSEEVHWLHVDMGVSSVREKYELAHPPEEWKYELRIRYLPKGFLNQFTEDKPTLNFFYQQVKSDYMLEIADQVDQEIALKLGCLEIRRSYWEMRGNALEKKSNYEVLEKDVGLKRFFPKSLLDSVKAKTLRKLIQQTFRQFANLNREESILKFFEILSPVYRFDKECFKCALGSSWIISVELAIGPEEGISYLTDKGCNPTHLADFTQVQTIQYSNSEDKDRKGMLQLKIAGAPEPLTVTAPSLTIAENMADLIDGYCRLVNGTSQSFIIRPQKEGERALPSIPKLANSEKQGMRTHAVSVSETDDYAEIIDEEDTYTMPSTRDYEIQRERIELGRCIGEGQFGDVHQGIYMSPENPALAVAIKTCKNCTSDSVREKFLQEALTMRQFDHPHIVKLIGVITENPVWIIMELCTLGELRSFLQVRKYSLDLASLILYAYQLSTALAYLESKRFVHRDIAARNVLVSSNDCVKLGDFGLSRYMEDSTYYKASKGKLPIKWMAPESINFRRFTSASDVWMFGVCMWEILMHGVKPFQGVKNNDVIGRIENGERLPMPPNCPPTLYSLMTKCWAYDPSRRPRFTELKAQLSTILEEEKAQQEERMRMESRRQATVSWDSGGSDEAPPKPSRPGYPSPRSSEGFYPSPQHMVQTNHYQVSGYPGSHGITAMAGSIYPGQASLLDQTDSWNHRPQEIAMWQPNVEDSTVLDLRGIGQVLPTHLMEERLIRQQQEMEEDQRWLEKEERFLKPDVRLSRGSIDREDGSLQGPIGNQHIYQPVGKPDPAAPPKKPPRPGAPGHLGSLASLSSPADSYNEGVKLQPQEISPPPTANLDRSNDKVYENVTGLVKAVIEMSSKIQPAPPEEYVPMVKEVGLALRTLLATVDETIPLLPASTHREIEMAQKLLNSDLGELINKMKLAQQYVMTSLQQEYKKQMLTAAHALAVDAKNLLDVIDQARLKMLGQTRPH

Focal adhesion kinase 1 [20] = molecular target: T1, Focal adhesion kinase 1; experiment: Inhibition of FAK (unknown origin) at 0.5 uM relative to control
Target sequence in this assay (Q05397 2-1052 limits assumed): as above

[21] = Half life in human plasma; assay type: ADME, cell-free
[22] = molecular target: T2, von Hippel-Lindau disease tumor suppressor/Bromodomain-containing protein 4; experiment: PROTAC activity at BRD4/VHL E3 ligase in human HEK293 cells assessed as maximal degradation of BRD4 at 10 nM incubated for 18 hrs by Nano-Glo HiBiT assay relative to control; assay type: cell-based
Histone deacetylase 1 = Histone deacetylase 1 (Homo sapiens, UniProt Q13547); experiment: Inhibition of HDAC1 (unknown origin)
Chain of Histone deacetylase 1 (Q13547 whole entry): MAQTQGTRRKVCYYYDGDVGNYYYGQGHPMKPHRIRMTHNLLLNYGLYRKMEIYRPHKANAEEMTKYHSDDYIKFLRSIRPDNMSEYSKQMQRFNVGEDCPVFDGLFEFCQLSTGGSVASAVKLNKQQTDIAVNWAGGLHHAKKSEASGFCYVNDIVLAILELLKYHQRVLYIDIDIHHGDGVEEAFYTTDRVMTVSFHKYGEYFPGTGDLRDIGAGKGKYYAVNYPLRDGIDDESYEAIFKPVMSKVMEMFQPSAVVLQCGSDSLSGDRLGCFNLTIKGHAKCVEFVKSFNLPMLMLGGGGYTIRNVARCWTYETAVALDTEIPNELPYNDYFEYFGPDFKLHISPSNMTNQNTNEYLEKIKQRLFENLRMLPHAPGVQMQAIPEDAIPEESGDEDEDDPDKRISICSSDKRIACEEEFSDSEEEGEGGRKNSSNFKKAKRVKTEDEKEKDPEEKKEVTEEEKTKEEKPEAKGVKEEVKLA

Histone deacetylase 2 = Histone deacetylase 2 (Homo sapiens, UniProt Q92769); experiment: Inhibition of HDAC2 (unknown origin)
Chain of Histone deacetylase 2 (Q92769 whole entry): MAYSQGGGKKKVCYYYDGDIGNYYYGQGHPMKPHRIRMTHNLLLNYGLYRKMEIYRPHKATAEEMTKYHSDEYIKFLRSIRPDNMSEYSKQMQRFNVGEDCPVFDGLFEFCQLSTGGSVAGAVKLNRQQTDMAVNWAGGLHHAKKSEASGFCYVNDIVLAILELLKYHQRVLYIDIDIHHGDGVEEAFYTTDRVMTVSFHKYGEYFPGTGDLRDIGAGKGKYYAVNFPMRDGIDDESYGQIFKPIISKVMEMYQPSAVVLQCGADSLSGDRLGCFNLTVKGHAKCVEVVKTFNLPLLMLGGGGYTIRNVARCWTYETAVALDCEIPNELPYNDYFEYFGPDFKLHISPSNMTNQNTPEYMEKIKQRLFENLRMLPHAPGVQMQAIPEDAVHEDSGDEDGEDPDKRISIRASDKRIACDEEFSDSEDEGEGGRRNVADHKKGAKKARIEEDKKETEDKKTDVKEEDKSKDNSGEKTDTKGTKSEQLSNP

Histone deacetylase 3 = Histone deacetylase 3 (Homo sapiens, UniProt O15379); experiment: Inhibition of HDAC3 (unknown origin)
MGC-803 [23] = experiment: Antiproliferative activity against human MGC-803 cells; assay type: functional, cell-based
HGC-27 = experiment: Antiproliferative activity against human HGC-27 cells; assay type: functional, cell-based
BGC-823 = experiment: Antiproliferative activity against human BGC-823 cells; assay type: functional, cell-based
DU-145 = experiment: Antiproliferative activity against human DU-145 cells; assay type: functional, cell-based
[24] = Antiproliferative activity against human PC-3 cells; assay type: functional, cell-based
A549 [25] = experiment: Antiproliferative activity against human A549 cells; assay type: functional, cell-based
NCI-H520 = experiment: Antiproliferative activity against human NCI-H520 cells; assay type: functional, cell-based
MCF7 [26] = experiment: Antiproliferative activity against human MCF7 cells; assay type: functional, cell-based
MDA-MB-231 [27] = experiment: Antiproliferative activity against human MDA-MB-231 cells; assay type: functional, cell-based
ECa-109 cell line = experiment: Antiproliferative activity against human EC109 cells; assay type: functional, cell-based
TE-1 = experiment: Antiproliferative activity against human TE-1 cells; assay type: functional, cell-based
KYSE-450 = experiment: Antiproliferative activity against human KYSE-450 cells; assay type: functional, cell-based
HCT-116 [28] = experiment: Antiproliferative activity against human HCT-116 cells; assay type: functional, cell-based

IC50 (Focal adhesion kinase 1 [1]): 48 nM
IC50 (HeLa): 190 nM
IC50 (HCT-116 [2]): 170 nM
IC50 (MDA-MB-231 [3]): 180 nM
IC50 (Insulin receptor): 107 nM
SMILES: CCCS(=O)(=O)NCC(=O)N1CCN(c2ccc(Nc3ncc(Cl)c(Nc4ccccc4C(=O)NC)n3)cc2)CC1

IC50 (Focal adhesion kinase 1 [1]): 3.7 nM
SMILES: CC(=O)NCCC(=O)Nc1cc(Nc2ncc(Br)c(Nc3ccc(NC(C)=O)cc3NC(C)=O)n2)ccc1OCCF

SMILES: CNC(=O)c1ccccc1Nc1nc(Nc2ccc(N3CCOCC3)cc2OC)ncc1Cl
Activity (MGC-803 [4]): 53.53%

IC50 (Focal adhesion kinase 1 [1]): 9.9 nM
half-life [5]: 145 min
half-life [6]: 228 min
bioavailability [7]: 77.6%
IC50 (A549 [8]): 800 nM
IC50 (U-87 MG): 12.7 µM
IC50 (MDA-MB-231 [9]): 1600 nM
IC50 (PANC-1): 3.7 µM
IC50 (BXPC-3): 2300 nM
IC50 (HepG2 [10]): 3.5 µM
IC50 (MCF7 [11]): 2000 nM
IC50 (HCT-15): 900 nM
SMILES: Clc1cccc(Cn2ccc3cnc(NC4CCC(N5CCNCC5)CC4)nc32)c1 (stereo unspecified)
IC50 at 48 h [12]: 7.1 µM
IC50 at 72 h [13]: 6.9 µM

IC50 (Focal adhesion kinase 1 [1]): 47.2 nM
SMILES: CNC(=O)c1ccccc1Nc1nc(Nc2ccc(/C=C/C(=O)N3CCOCC3)cc2)ncc1Cl

IC50 (A-375): 7.13 µM
IC50 (MCF7 [14]): 7.92 µM
IC50 (HepG2 [15]): 5.56 µM
IC50 (SGC-7901): 11.7 µM
SMILES: O=C(CSC1Nc2ccccc2C(=O)N1c1ccccc1)N1CCN(c2ccccc2Cl)CC1 (stereo unspecified)

IC50 (Focal adhesion kinase 1 [1]): 52 nM
IC50 (HeLa): 2680 nM
IC50 (HCT-116 [2]): 640 nM
IC50 (MDA-MB-231 [3]): 4190 nM
IC50 (Insulin receptor): 168 nM
SMILES: CNC(=O)c1ccccc1Nc1nc(Nc2ccc(N3CCN(C(=S)SCCCN4CCOCC4)CC3)cc2)ncc1Cl

SMILES: COc1cc2nc(-c3ccc(C(F)(F)F)cc3)cc(OCCCNC3CCN(C)CC3)c2cc1OC
IC50 (DLD-1): 1790 nM
IC50 (HCT-116 [16]): 3.28 µM

IC50 (HeLa): 270 nM
IC50 (HCT-116 [2]): 190 nM
IC50 (MDA-MB-231 [3]): 260 nM
IC50 (Insulin receptor): > 1000 nM
SMILES: O=C1CCc2cccc(Oc3nc(Nc4ccc(N5CCN(C(=S)SCCCN6CCOCC6)CC5)cc4)ncc3C(F)(F)F)c21

DC50 [17]: 3 nM
SMILES: Cc1ncsc1-c1ccc(CNC(=O)[C@@H]2C[C@@H](O)CN2C(=O)[C@@H](NC(=O)CCOCCOc2ccc(Nc3ncc(C(F)(F)F)c(NCc4cccc(N(C)S(C)(=O)=O)c4)n3)cc2)C(C)(C)C)cc1

half-life [18]: 245 min
SMILES: COc1cc(C(=O)NC2CCNCC2)ccc1Nc1nc(Oc2cccc3c2C(=O)CC3)c2cc[nH]c2n1

inhibition (Focal adhesion kinase 1 [19]): 84.4%
inhibition (Focal adhesion kinase 1 [20]): 96.9%
half-life [21]: > 195 min
Emax [22]: 85%
SMILES: CN(c1ncccc1CNc1nc(Nc2ccc(N3CCN(CCCCCCC(=O)NCCNc4cccc5c4C(=O)N(C4CCC(=O)NC4=O)C5=O)CC3)cc2)ncc1C(F)(F)F)S(C)(=O)=O (stereo unspecified)

SMILES: COc1cc2nc(-c3ccc(C(F)(F)F)cc3)cc(OCCCNCC3CCCO3)c2cc1OC (stereo unspecified)
IC50 (DLD-1): 2480 nM
IC50 (HCT-116 [16]): 5.68 µM

IC50 (Histone deacetylase 1): 526 nM
IC50 (Histone deacetylase 2): 629 nM
IC50 (Histone deacetylase 3): 1050 nM
IC50 (MGC-803 [23]): 182 nM
IC50 (BGC-823): 194 nM
IC50 (DU-145): 467 nM
IC50 (A549 [25]): 1790 nM
IC50 (NCI-H520): 2580 nM
IC50 (MCF7 [26]): 834 nM
IC50 (MDA-MB-231 [27]): 1890 nM
IC50 (HCT-116 [28]): 248 nM
SMILES: CNC(=O)c1ccccc1Nc1nc(Nc2ccc(NC(=O)CCCCCCC(=O)NO)cc2)ncc1Cl
IC50 (HGC-27): 512 nM
IC50 [24]: 667 nM
IC50 (ECa-109 cell line): 981 nM
IC50 (TE-1): 1130 nM
IC50 (KYSE-450): 619 nM

SMILES: COc1cc2nc(-c3ccc(C(F)(F)F)cc3)cc(OCCCN3CCN(C)CC3)c2cc1OC
IC50 (DLD-1): 2250 nM
IC50 (HCT-116 [16]): 3.09 µM

DC50 [17]: 8.4 nM
SMILES: CNC(=O)c1ccccc1Nc1cc(Nc2ccc(N3CCN(CC(=O)N[C@H](C(=O)N4C[C@H](O)C[C@H]4C(=O)N[C@@H](C)c4ccc(-c5scnc5C)cc4)C(C)(C)C)CC3)cc2OC)ncc1C(F)(F)F

SMILES: Clc1ccc(-c2cc(OCCCN3CCOCC3)c3cc(-c4ccco4)ccc3n2)cc1
IC50 (DLD-1): 2090 nM
IC50 (HCT-116 [16]): 2.96 µM
